Results from US11478471B2, “Methods and compositions for treating diabetes, metabolic syndrome and other conditions” (priority 2005, dated 2022).
In brackets after ≈: the same amount, converted by molar mass. Read-outs that look alike come from different tables or passages of the source.

How the values were obtained:
[1] = SBA for NDA 18-533; cited from earlier work
Issatchenkia orientalis = assay: Antifungal MIC; type: cell-based; conditions: Pichia kudriavzevii
[2] = read-out: Cmax of unmetabolized ketoconazole; humans, 400 mg dose; cited from earlier work
[3] = Toxicokinetics in the 28 day dog study of DIO-902 (with racemic ketoconazole group a); conditions: beagle, plasma, dogs; for concentration at 0 h / concentration at 1 h / concentration at 2 h / concentration at 4 h / concentration at 8 h / concentration at 12 h: Drug concentration in plasma; for AUC(0-t): AUC(0-12); for Tmax: Tmax Range;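 for all read-outs here: beagle dogs dosed orally once daily within a 28-day GLP study, 3 animals per sex per group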
[4] = female, oral, 20 mg/kg, group a: 20 mg/kg oral (after 40 mg/kg days 1-9, pause), day 28, F
[5] = female, po, 20 mg/kg, group a: 20 mg/kg oral (after 40 mg/kg days 1-9, pause), day 28, F
[6] = female, po, 40 mg/kg, group a: 40 mg/kg oral, day 1, F
[7] = male, oral, 20 mg/kg, group a: 20 mg/kg oral (after 40 mg/kg days 1-9, pause), day 28, M
[8] = male, po, 20 mg/kg, group a: 20 mg/kg oral (after 40 mg/kg days 1-9, pause), day 28, M
[9] = male, po, 40 mg/kg, group a: 40 mg/kg oral, day 1, M

CC(=O)N1CCN(c2ccc(OCC3COC(Cn4ccnc4)(c4ccc(Cl)cc4Cl)O3)cc2)CC1 (racemic) [Racemic ketoconazole, 1-acetyl-4-[4-[[2-(2,4-dichlorophenyl)-2-[(1H-imidazol-1-yl)-methyl]-1,3-dioxolan-4-yl]methoxy]phenyl]piperazine]
carcinogenicity [1]: non-carcinogenic
MIC (Issatchenkia orientalis; DSM11956, 48 h): 0.25 µg/mL (≈ 0.47 µM)
MIC (Issatchenkia orientalis; DSM11958, 48 h): 1 µg/mL (≈ 1.88 µM)
Cmax [2]: 12.3 µM
concentration at 0 h [3, 4]: < 250 ng/mL
concentration at 1 h [3, 4]: < 250 ng/mL
concentration at 2 h [3, 4]: 270 ng/mL
concentration at 4 h [3, 4]: 350 ng/mL
concentration at 8 h [3, 4]: 310 ng/mL
concentration at 12 h [3, 4]: < 250 ng/mL
AUC(0-t) ([3]; female, po, 20 mg/kg, group a: 20 mg/kg oral (after 40 mg/kg days 1-9, pause), day 28, F, n = 1): 4700 ng·h/mL
Cmax [3, 5]: 550 ng/mL
Tmax [3, 5]: 2 to 8 h
AUC(0-t) [3, 6]: 185000 ng·h/mL
Cmax [3, 6]: 21300 ng/mL
concentration at 0 h [3, 6]: < 250 ng/mL
concentration at 1 h [3, 6]: 4290 ng/mL
concentration at 2 h [3, 6]: 12300 ng/mL
concentration at 4 h [3, 6]: 20100 ng/mL
concentration at 8 h [3, 6]: 18300 ng/mL
concentration at 12 h [3, 6]: 14800 ng/mL
Tmax [3, 6]: 4 to 8 h
concentration at 0 h [3, 7]: < 250 ng/mL
concentration at 1 h [3, 7]: < 250 ng/mL
concentration at 2 h [3, 7]: 280 ng/mL
concentration at 4 h [3, 7]: < 250 ng/mL
concentration at 8 h [3, 7]: < 250 ng/mL
concentration at 12 h [3, 7]: < 250 ng/mL
AUC(0-t) ([3]; male, po, 20 mg/kg, group a: 20 mg/kg oral (after 40 mg/kg days 1-9, pause), day 28, M, n = 1): 3420 ng·h/mL
Cmax [3, 8]: 510 ng/mL
Tmax [3, 8]: 1 to 8 h
AUC(0-t) [3, 9]: 143000 ng·h/mL
Cmax [3, 9]: 16600 ng/mL
concentration at 0 h [3, 9]: < 250 ng/mL
concentration at 1 h [3, 9]: 5600 ng/mL
concentration at 2 h [3, 9]: 8870 ng/mL
concentration at 4 h [3, 9]: 10800 ng/mL
concentration at 8 h [3, 9]: 16600 ng/mL
concentration at 12 h [3, 9]: 12800 ng/mL
Tmax [3, 9]: 8 h
